Experimental data as given in US10542753B2, “Compositions for improving budbreak and flowering” (Zelam Limited, priority 2015, dated 2020).

Tests used:
Gold3 [1] = experiment: Trial 5: sprayed trial after poor winter chill (Bay of Plenty); type: in vivo, Actinidia chinensis Planch. var. chinensis 'Zesy002'
Description: (§1) These 2014 sprayed trials were performed in the Bay of Plenty (Trial 5, five replicates, each a bay comprising two vines with ten assessment canes per rep, five on each side of the bay) and Hawkes Bay, NZ (Trial 6, four replicates, each a bay comprising four vines with twenty assessment canes per rep, five from each vine). HC (700 litres/Ha) and Examples 9 and 10 (800 litres/Ha) were sprayed on 16-Aug (37 DBNB, Trial 5) and 11-Aug (30 DBNB, Trial 6). FIG. 7 illustrates the progression of budbreak in Trial 5 and FIG. 8 illustrates the progression of budbreak in Trial 6.
(§2) Under current management practices Gold3 growers require at least about 1.8 single flowers per winter bud (SFWB) to achieve the recommended packout of 17,000 trays/Ha.

Hayward kiwifruit = experiment: Trial 1: cane painting, budbreak and flowering; type: in vivo, Actinidia deliciosa; details: for Spread of BB: spread = 4x standard deviation; for Advance in Midpoint / Reduction in Spread: vs untreated
Description: A cane painting experiment was performed in a Hayward kiwifruit orchard in the Bay of Plenty New Zealand in 2010 following a winter with average winter chill. Low-medium vigour canes of 1.6 m average length from 36 vines were tagged and either left untreated or painted with one of HC, Examples 1-4 and Comparative Example 1. The date of painting (6-Aug) was 56 days before natural budbreak (DBNB). Budbreak (BBCH stage 9) and flowering (BBCH stage 60) were determined based on the photographs published by Salinero et al., 2009, “Phenological growth stages of kiwifruit (Actinidia deliciosa ‘Hayward’)”, Scientia Horticulturae 121, 27-31, which is hereby incorporated by reference in its entirety. Graphed and tabulated data represent averages of the 36 replicates and are normalised based on the number of winter buds on each cane.
FIG. 1 illustrates the progression of budbreak in Trial 1. FIG. 2 illustrates the progression of flowering in Trial 1. The progress curves depicted in FIGS. 1 and 2 were fitted to a cumulative normal curve to calculate the midpoints of budbreak and flowering (the dates corresponding to a 50% response) and spread of response time (defined as 4× standard deviation) as summarised in Tables 1 and 2.

Hayward kiwifruit vines = experiment: Trial 2: cane painting, salicylic acid dose-response, budbreak; type: in vivo, Actinidia deliciosa
Description: A cane painting experiment was performed in 2012 in a Hayward kiwifruit orchard in Taranaki, New Zealand. Canes of 1.2 m average length from 33 vines were tagged and either left untreated or painted with one of HC, Examples 5-8 and Comparative Examples 2 and 3 on 9-Aug, 50 DBNB (28-Sep). Midpoints and spread were calculated for budbreak (Table 3) but there were insufficient data to perform the calculations for flowering. […] FIG. 3 illustrates the progression of budbreak in Trial 2. FIG. 4 illustrates the progress of flowering in Trial 2.

Gold3 kiwifruit = experiment: Trial 4: cane painting, budbreak and flowering; type: in vivo, Actinidia chinensis Planch. var. chinensis 'Zesy002'; design: Spread of BB / Advance in Midpoint / Reduction in Spread: unit not given here; details: for KFFS: king flowers per floral shoot; for KFWB: king flowers per winter bud; for Advance in Midpoint / Reduction in Spread: vs untreated
Description: This cane painting experiment was performed in a Bay of Plenty orchard in 2013 following a winter with poor chill in the key months of May and June. Low-medium vigour canes typical of the orchard were painted with either HC or Example 9 on 13-Aug and 20-Aug, 34 and 27 days before natural budbreak which occurred on 16-Sep. […] FIG. 5 illustrates the progression of budbreak and FIG. 6 illustrates the progress of flowering in Trial 4.

Granny Smith Apples = experiment: Trial 8: sprayed trees, budbreak, flowering and fruit set on fruiting spurs; type: in vivo
Description: Trial 8: Use on Granny Smith Apples was evaluated in New Plymouth, New Zealand following a poor winter chill in 2013. Treatments were applied on 9 Aug. 2013 at 200 L/Ha using a manual backpack sprayer in a replicated trial (4 replications of two tree plots).

Psa = experiment: Trial 3: whole-vine spray in Psa-infected orchard, Psa leaf spotting; type: in vivo, Hayward kiwifruit vines; details: for % Incidence: Psa leaf spotting
Excerpt: A trial in which whole Hayward kiwifruit vines were sprayed was established in the Bay of Plenty in 2013. There were twelve replicates and two sets of untreated vines. HC (700 litres/Ha) and the composition of Example 8 (800 litres/Ha) were applied on three dates using a boom sprayer designed to produce spray deposition typical of an orchard air blast sprayer. Of particular interest in this trial was the prevalence of Psa leaf spotting that became evident in late spring, particularly in the early HC-sprayed vines. Vines were assessed for Psa leaf spotting by rating 40 randomly selected leaves (10 on each side of the two leaders that made up each vine) on a 1-5 scale (Table 4).

Gold3 [2] = experiment: Trial 6: sprayed trial after good winter chill (Hawkes Bay); type: in vivo, Actinidia chinensis Planch. var. chinensis 'Zesy002'
Description: as §1, §2

[3] = Pahokee muck soil under varying agricultural practices; cited from earlier work
[4] = cited from earlier work
[5] = Trial 5, Bay of Plenty, poor winter chill

N#CN [HC, hydrogen cyanamide]
flower numbers (in words) (Gold3 [1]; [5]): excessive flower numbers | frequency of double and triple flowers / laterals (in words) (Gold3 [1]; [5]): nearly doubled | % Double flowers (Gold3 [1]; in vivo): 14.4% | % Laterals (Gold3 [1]; in vivo): 18.7% | % Triple flowers (Gold3 [1]; in vivo): 4.3% | KFWB (Gold3 [1]; king flowers per winter bud): 3.1 | SFWB (Gold3 [1]; single flowers per winter bud): 2.5 | % Budbreak (Gold3 [1]; sprayed 16-Aug (37 DBNB)): 56.9% | Spread of BB (Hayward kiwifruit; Table 2, flowering): 7 | Advance in Midpoint (Hayward kiwifruit; Table 2, flowering): 6 | Reduction in Spread (Hayward kiwifruit; Table 2, flowering): 9 | Spread of BB (Hayward kiwifruit; budbreak): 17 | Advance in Midpoint (Hayward kiwifruit; budbreak): 16 | Reduction in Spread (Hayward kiwifruit; budbreak): 32 | budbreak response (in words) (Hayward kiwifruit vines; Trial 2, FIG. 3, vs untreated): improved considerably | Spread of BB (Hayward kiwifruit vines; budbreak): 19 | Advance in Midpoint (Hayward kiwifruit vines; budbreak, vs untreated): 12 | Reduction in Spread (Hayward kiwifruit vines; budbreak, vs untreated): 7 | frequency of lateral flowers (doubles and triples) (in words) (Gold3 kiwifruit; Trial 4): increased the frequency of lateral flowers | king flowers per winter bud (KFWB) (in words) (Gold3 kiwifruit; Trial 4, vs untreated): large increases | KFFS (Gold3 kiwifruit; painted 27 DBNB (20-Aug)): 2.35 | KFFS (Gold3 kiwifruit; painted 34 DBNB (13-Aug)): 2.90 | KFWB (Gold3 kiwifruit; painted 27 DBNB (20-Aug)): 1.19 | KFWB (Gold3 kiwifruit; painted 34 DBNB (13-Aug)): 1.48 | % Budbreak (Gold3 kiwifruit; painted 27 DBNB (20-Aug)): 72.1% | % Deformed (Gold3 kiwifruit; painted 27 DBNB (20-Aug)): 0.2% | % Laterals (Gold3 kiwifruit; painted 27 DBNB (20-Aug)): 1.8% | Floral shoots (Gold3 kiwifruit; painted 27 DBNB (20-Aug)): 71% | Spread of BB (Gold3 kiwifruit; painted 27 DBNB (20-Aug)): 24 | Advance in Midpoint (Gold3 kiwifruit; painted 27 DBNB (20-Aug)): 15 | Reduction in Spread (Gold3 kiwifruit; painted 27 DBNB (20-Aug)): 17 | % Budbreak (Gold3 kiwifruit; painted 34 DBNB (13-Aug)): 64.5% | % Deformed (Gold3 kiwifruit; painted 34 DBNB (13-Aug)): 1.7% | % Laterals (Gold3 kiwifruit; painted 34 DBNB (13-Aug)): 9.9% | Floral shoots (Gold3 kiwifruit; painted 34 DBNB (13-Aug)): 83% | Spread of BB (Gold3 kiwifruit; painted 34 DBNB (13-Aug)): 12 | Advance in Midpoint (Gold3 kiwifruit; painted 34 DBNB (13-Aug)): 19 | Reduction in Spread (Gold3 kiwifruit; painted 34 DBNB (13-Aug)): 30 | % Budbreak 28 DAA (Granny Smith Apples; 28 DAA): 14% | % Budbreak 39 DAA (Granny Smith Apples; 39 DAA): 39% | % Budbreak 47 DAA (Granny Smith Apples; 47 DAA): 34% | % Flowering 54 DAA (Granny Smith Apples; 54 DAA): 66% | % Fruit set 74 DAA (Granny Smith Apples; 74 DAA): 16% | change in Psa leaf spotting (ANOVA, in words) (Psa; HC after the first two applications, Example 8 at all application dates): significant increase | % Incidence (Psa; applied 15-Aug (46 DBNB)): 51.5 a % | % Incidence (Psa; applied 24-Aug (37 DBNB)): 21.7 b % | % Incidence (Psa; applied 30-Aug (31 DBNB)): 18.3 bc % | Leaf spotting score (Psa; applied 15-Aug (46 DBNB), 40 leaves rated on 1-5 scale): 1.15 a | Leaf spotting score (Psa; applied 24-Aug (37 DBNB)): 0.42 b | Leaf spotting score (Psa; applied 30-Aug (31 DBNB)): 0.31 bc | frequency of laterals (in words) (Gold3 [2]; Trial 6, Hawkes Bay, good winter chill): further increased | % Laterals (Gold3 [2]; in vivo): 31.2% | KFWB (Gold3 [2]; king flowers per winter bud): 2.61 | SFWB (Gold3 [2]; single flowers per winter bud): 1.8 | % Budbreak (Gold3 [2]; sprayed 11-Aug (30 DBNB)): 55.9%

O=C(O)c1ccccc1O [Salicylic acid, salicylic acid]
Biodegradation [3]: rapid | Solubility in ethanol ([4]; 21° C.): 34.87 % w/w | Solubility in propanol ([4]; 21° C.): 27.36 % w/w | Solubility in benzene ([4]; 25° C.): 0.775 % w/w
